# Assay results: publication PMC12042267, “Expanding the Family of Monosubstituted 15-Membered Pyridine-Based Macrocyclic Ligands for Mn(II) Complexation in the Context of MRI” (Inorganic Chemistry, 2025)
# Columns and labels:
# Type in all cases: physicochemical
# [1] = Ligand protonation constants by pH-potentiometric titration; conditions: I = 0.15 M NaCl; 25 °C
# Procedure: (§1) Metal stock solutions were prepared from the highest analytical grade chemicals, and their concentration was determined by complexometric titration with standardized Na2H2EDTA, using xylenol orange indicator in the presence of urotropine buffer (ZnCl2 and MnCl2); Eriochrome black T indicator in the presence of ammonium acetate buffer (CaCl2) or murexide indicator in ammonium solution (CuCl2). The concentration of the ligand stock solutions was determined by pH-potentiometric titrations (the difference between two consecutive inflection points of the ligand titration curve corresponds to two (L2) or one (L3) ligand equivalents). To determine the protonation constants of the ligand and stability constants of the metal complexes with selected divalent metal ions, pH-potentiometric titrations were carried out with 0.1 M NaOH at 2 mM ligand concentration, in the absence (for ligand protonation constants) or in the presence of one equivalent of metal ion (for stability constants). During the titration, the waiting time was 2 min between successive points (V0 = 5 mL). The temperature (25.0 ± 0.1 °C) was controlled by a circulating water bath. The ionic strength was set to I = 0.15 M NaCl. All titrations were performed under a nitrogen atmosphere to avoid the effect of CO2. Titrations were carried out in the pH range from 1.8 (L3) or 2.0 (L2) (after the addition of 1 M HCl solution to the starting ligand solution in the titration cell) to pH 11 (or until precipitation of the metal hydroxide). All pH-potentiometric titrations were performed using a 785 DMP Titrino titration workstation with a combined electrode (Metrohm). The p[H] (p[H] = −log[H+], concentration in molarity) was measured in each titration with a combined pH glass electrode (Metrohm) filled with 3 M KCl. The electrode was calibrated in hydrogen ion concentration by titration of HCl with KOH in 0.1 M electrolyte solution.[37] A plot of potential versus p[H] allows determination of the electrode standard potential (E°) and the slope factor (f).
# The protonation constants of the ligand (log Ki^H) are defined as follows [drawing 1] where i = 1, 2, ··· and [Hi–1L] and [H^+] are the equilibrium concentrations of the ligand (i = 1), its protonated forms (i = 2, ···), and the hydrogen ion. The stability (KML) and the protonation (KMHiL) constants for the metal complexes are defined as follows [drawing 2] [drawing 3] For the calculations of the equilibrium constants, the HYPERQUAD program was used.[38] The number of fitted data pairs was between 190 and 240. The ionic product of water at 25 °C and 0.1 M ionic strength is pKw = 13.77.[39] Fixed values were used for pKw, ligand acidity constants, and total concentrations of metal, ligand, and acid. […]
# [2] = Stability constants of Mn(II) complexes by pH-potentiometry, pMn and species distribution; conditions: for log KML / log KML(OH): Mn(II), I = 0.15 M NaCl, 25 °C; for pMn: pMn = −log[Mn(II)]free at pH 7.4, cMn = clig = 10^–5 M
# Procedure: as §1
# (§2) The protonation constants of the ligand (log Ki^H) are defined as follows [drawing 1] where i = 1, 2, ··· and [Hi–1L] and [H^+] are the equilibrium concentrations of the ligand (i = 1), its protonated forms (i = 2, ···), and the hydrogen ion. The stability (KML) and the protonation (KMHiL) constants for the metal complexes are defined as follows [drawing 2] [drawing 3] For the calculations of the equilibrium constants, the HYPERQUAD program was used.[38] The number of fitted data pairs was between 190 and 240. The ionic product of water at 25 °C and 0.1 M ionic strength is pKw = 13.77.[39] Fixed values were used for pKw, ligand acidity constants, and total concentrations of metal, ligand, and acid. All values and errors (one standard deviation) reported are at least the average of two independent experiments.
# To obtain further information about the impact of a given pendant arm, it is interesting to calculate pMn values (pMn = −log[Mn(II)]free at pH 7.4, cMn = clig= 10^–5 M) which provide a more direct comparison of MnL stabilities, independently of differences in protonation constants (Table 4). […] Nevertheless, the too large, 15-membered macrocyclic cavity combined with a lower number of pendant arms provide ca. 2 orders of magnitude lower stability for Mn(II) complexation as compared to the 12-membered pyclen derivatives (Table 4).
# [3] = Stability constants of Ca(II) complexes by pH-potentiometry; conditions: I = 0.15 M NaCl, 25 °C
# Procedure: as §1, §2
# [4] = Stability constants of Cu(II) complexes by pH-potentiometry; conditions: I = 0.15 M NaCl, 25 °C
# Procedure: as §1, §2
# [5] = Stability constants of Zn(II) complexes by pH-potentiometry; conditions: I = 0.15 M NaCl, 25 °C
# Procedure: as §1, §2
# [6] = Dissociation kinetics of Mn(II) complexes, transmetalation with Zn(II) (T2 relaxation); conditions: Zn(II) transmetalation, 25 °C, 0.15 M NaCl, pH 4.9–6.0
# Procedure: The transmetalation reaction of MnL2 and MnL3 (1.4 mM) was monitored in the presence of 10, 20, 30, and 40 mol equiv of Zn(II) ions, by measuring water proton T2 relaxation times (60 MHz) as a function of time at 25 °C and in 0.15 M NaCl, in the pH range 4.9–6.0 (4.9, 5.0, 5.2, 5.5, and 6.0). To control pH, 50 mM N-methyl-piperazine (pH 4.9–5.5) or 50 mM MES (2-(4-morpholino)ethane-sulfonic acid) buffer (pH 5.7–6.0) was used. Transmetalation of MnL2 (0.3 mM) was also investigated in the presence of 10, 20, 30, and 40 mol equiv of Cu(II) ions, by monitoring the UV–vis absorbance at 274.0 nm as a function of time at 25 °C and in 0.15 M NaCl, in the pH range 4.7–5.0 (in 75 mM 1,4-dimethyl piperazine (DMP) buffer). No oxidation of the samples was observed. The program OriginPro 9 was used for the fitting of experimental data.
# The dissociation kinetics was followed through monitoring Mn(II) release by water proton T2 measurements, at pH […], in the presence of 10- to 40-fold excess of Zn(II) and through UV–vis measurements in the presence of 10- to 40-fold excess of Cu(II) at pH 4.7–5.0 (only for MnL2). The observed dissociation rate constants, kobs, increase with increasing H^+ ion concentration (Figures 4, left and S20). They remain independent of Zn(II) concentration (Figures S18 and S19), but do show dependence on Cu(II) concentration (Figure S21).
# In excess of the exchanging metal ion, the reaction is of pseudo-first order, and the rate is proportional to the total MnL2 or MnL3 concentration (eq 1), where kobs is the pseudo-first-order rate constant. [drawing 4] 1 In general, different dissociation pathways can coexist, implying the participation of protons and/or the exchanging metal ion,[47] as illustrated in Figure 5.
# Based on this scheme, the overall rate for either Zn(II) or Cu(II) transmetalation can be given by eq 2, where M = Zn^2+ or Cu^2+ (for clarity, charges of the complexes are omitted). [drawing 5] 2 Here, the first and second terms correspond to the spontaneous dissociation of the nonprotonated and the monoprotonated complexes, respectively, the third term describes the proton-assisted dissociation of the monoprotonated complex, and the last two terms refer to the spontaneous dissociation of the dinuclear complex and metal-assisted dissociation of the monoprotonated MnL2 or MnL3 complex. [MnL]tot describes the total concentration of Mn(II) chelates ([MnL]tot = [MnL] + [MnHL] + [ZnLMn]). Since no obvious Zn(II) dependence (for any of the two systems) was observed, only the spontaneous and proton-assisted dissociation pathways were taken into consideration. Consequently, the observed rate constants can be expressed as in eq 3 with k0 = kMnL, k1 = kMnHL·KMnHL, and k2 = ^HkMnHL·KMnHL. [drawing 6] 3 The kobs rate constants were fitted to eq 3, and the calculated parameters are listed in Table 5 for the Zn(II) exchange. During the fitting procedure, KMnHL was fixed to the value obtained from the pH-potentiometric titrations.
Structure (SMILES),log K2^H [1],log K3^H [1],log KML [2],log KML(OH) [2],pMn [2],log KH2ML [3],log KHML [3],log KML [3],log KML [4],log KML(OH) [4],log KHML [5],log KML [5],log KML(OH) [5],k0 (spontaneous dissociation of the nonprotonated complex) [6],k1 (spontaneous dissociation of the monoprotonated complex) [6],k2 (proton-assisted dissociation of the monoprotonated complex) [6],log KML(OH) [3],log KHML [4]
c1ccc(CN2CCOCCOCCNCc3cccc(n3)C2)nc1 [L2],7.14(1),2.1(1),10.25(1),-10.89(3),6.93,6.63(9),7.23(7),4.11(4),16.57(8),-10.78(8),2.99(2),13.36(1),-10.97(2),(1.1 ± 0.3) × 10^–3 s^–1,737 ± 110 M^–1 s^–1,(4.5 ± 0.8) × 10^7 M^–2 s^–1,–,–
c1cc2nc(c1)CN(Cc1nc3ccccc3[nH]1)CCOCCOCCNC2 [L3],5.85(1),1.98(1),9.74(1),-9.78(1),6.80,–,6.72(6),3.53(1),16.91(2),-7.9(1),2.09(6),12.09(1),-9.33(2),(1.9 ± 0.3) × 10^–3 s^–1,912 ± 41 M^–1 s^–1,–,-10.93(1),2.1(4)
